Laboratory results taken from ChEMBL document CHEMBL1201862, “PubChem BioAssay data set” (2004).
Activity calls are given as the source filed them.

Experiments:
Mu-type opioid receptor = Mu-type opioid receptor (Homo sapiens, UniProt P35372); assay: (§1) Counterscreen for agonists of heterodimerization of the mu 1 (OPRM1) and delta 1 (OPRD1) opioid receptors: Luminescence-based cell-based high throughput dose response assay to identify agonists of OPRM1 homodimerization.; type: functional
[1] = molecular target: Delta-type opioid receptor (Homo sapiens, UniProt P41143); assay: as §1, with “of OPRD1” for “of OPRM1”, “homodimerization. [Related pubchem assays (depositor defined):AID504326, AID504355, AID504692, AID504904, AID504905]” for “homodimerization.”; type: functional
Chain of Delta-type opioid receptor (P41143 whole entry): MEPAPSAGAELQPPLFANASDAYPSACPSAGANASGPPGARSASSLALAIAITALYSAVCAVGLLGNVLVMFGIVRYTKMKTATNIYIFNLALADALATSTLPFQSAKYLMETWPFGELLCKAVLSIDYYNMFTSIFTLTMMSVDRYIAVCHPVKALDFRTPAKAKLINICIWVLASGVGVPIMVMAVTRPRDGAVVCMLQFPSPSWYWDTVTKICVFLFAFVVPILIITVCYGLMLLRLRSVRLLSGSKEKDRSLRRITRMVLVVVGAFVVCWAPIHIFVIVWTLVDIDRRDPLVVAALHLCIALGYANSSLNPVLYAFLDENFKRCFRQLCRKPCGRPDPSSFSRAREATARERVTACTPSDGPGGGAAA

[2] = molecular target: 5-hydroxytryptamine receptor 5A (Homo sapiens, UniProt P47898); assay: Counterscreen for agonists of OPRM1-OPRD1 heterodimerization: luminescence-based cell-based high throughput dose response assay to identify agonists of 5-hydroxytryptamine (serotonin) 5A receptor (HTR5A). [Related pubchem assays (depositor defined):AID504326, AID504355, AID504692, AID504904, AID504905]; type: functional
Chain of 5-hydroxytryptamine receptor 5A (P47898 whole entry, the tested form may be a part): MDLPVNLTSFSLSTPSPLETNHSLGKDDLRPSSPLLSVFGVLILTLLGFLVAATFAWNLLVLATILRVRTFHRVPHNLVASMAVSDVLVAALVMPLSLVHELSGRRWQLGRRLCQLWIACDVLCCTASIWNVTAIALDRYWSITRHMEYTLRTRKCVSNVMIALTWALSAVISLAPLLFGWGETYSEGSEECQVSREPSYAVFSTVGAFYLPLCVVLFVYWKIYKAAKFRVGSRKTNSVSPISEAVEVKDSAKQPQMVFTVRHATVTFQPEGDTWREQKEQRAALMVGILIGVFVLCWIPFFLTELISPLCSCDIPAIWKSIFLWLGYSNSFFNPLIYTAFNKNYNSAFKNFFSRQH

Hexokinase HKDC1 = molecular target: T1, Hexokinase HKDC1 (Homo sapiens, UniProt Q2TB90); assay: SAR analysis of small molecule inhibitors of hexokinase domain containing I (HKDC1). [Related pubchem assays (depositor defined):AID493160, AID493190]; type: functional
T1 sequence (Q2TB90 whole entry): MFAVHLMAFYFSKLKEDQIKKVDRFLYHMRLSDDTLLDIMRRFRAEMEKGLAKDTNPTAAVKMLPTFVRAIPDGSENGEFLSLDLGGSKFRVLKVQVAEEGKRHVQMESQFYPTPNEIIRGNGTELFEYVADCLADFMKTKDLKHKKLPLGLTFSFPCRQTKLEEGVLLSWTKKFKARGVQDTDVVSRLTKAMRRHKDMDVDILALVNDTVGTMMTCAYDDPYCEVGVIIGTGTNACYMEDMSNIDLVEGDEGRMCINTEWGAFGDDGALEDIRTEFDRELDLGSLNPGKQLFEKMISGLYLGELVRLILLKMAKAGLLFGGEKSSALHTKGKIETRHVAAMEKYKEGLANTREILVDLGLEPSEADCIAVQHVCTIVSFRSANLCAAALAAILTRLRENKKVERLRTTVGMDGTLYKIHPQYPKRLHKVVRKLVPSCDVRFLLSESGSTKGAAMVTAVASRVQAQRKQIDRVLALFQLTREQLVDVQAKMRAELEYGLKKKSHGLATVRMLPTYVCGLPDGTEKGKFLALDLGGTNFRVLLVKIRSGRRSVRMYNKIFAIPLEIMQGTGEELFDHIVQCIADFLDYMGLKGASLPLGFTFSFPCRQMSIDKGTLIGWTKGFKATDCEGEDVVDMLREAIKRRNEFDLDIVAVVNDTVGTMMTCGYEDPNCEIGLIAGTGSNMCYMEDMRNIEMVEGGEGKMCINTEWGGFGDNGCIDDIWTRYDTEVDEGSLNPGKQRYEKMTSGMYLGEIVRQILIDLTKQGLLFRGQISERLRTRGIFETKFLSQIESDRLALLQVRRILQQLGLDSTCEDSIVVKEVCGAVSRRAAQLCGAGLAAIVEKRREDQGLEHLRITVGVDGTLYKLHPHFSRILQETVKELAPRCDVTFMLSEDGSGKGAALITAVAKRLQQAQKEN

Hexokinase-1 = molecular target: T2, Hexokinase-1 (Homo sapiens, UniProt P19367); assay: SAR analysis of small molecule inhibitors of hexokinase domain containing I (HKDC1) in the hexokinase 1 selectivity assay. [Related pubchem assays (depositor defined):AID493160, AID493190]; type: functional
T2 sequence (P19367 whole entry): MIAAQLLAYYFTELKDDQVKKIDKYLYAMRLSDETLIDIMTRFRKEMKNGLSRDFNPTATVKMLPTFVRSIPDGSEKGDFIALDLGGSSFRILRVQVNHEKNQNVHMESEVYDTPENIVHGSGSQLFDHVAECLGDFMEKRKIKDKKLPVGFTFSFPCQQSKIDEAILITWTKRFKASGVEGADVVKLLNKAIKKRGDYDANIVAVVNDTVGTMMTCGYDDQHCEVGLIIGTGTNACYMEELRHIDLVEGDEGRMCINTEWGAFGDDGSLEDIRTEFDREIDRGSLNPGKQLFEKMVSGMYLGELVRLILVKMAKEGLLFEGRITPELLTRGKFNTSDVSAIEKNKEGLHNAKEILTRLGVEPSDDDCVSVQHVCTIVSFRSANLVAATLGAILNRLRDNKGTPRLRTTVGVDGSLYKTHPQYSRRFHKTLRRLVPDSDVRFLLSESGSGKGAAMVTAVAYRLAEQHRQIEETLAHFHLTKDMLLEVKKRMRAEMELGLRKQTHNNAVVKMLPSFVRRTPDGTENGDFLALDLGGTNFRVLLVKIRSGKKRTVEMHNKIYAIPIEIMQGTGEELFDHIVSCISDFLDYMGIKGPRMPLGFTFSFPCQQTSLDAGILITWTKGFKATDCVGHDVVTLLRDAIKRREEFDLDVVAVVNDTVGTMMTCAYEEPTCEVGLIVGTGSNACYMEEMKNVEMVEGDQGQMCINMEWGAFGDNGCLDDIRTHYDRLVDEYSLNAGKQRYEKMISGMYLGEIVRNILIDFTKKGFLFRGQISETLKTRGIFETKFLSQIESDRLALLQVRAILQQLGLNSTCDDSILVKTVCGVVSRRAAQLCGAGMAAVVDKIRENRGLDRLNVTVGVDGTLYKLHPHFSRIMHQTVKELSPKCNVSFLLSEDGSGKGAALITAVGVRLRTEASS

[3] = HepG2 cell cytotoxicity, dose response, cytotoxicity control, plate reader, cherry-pick, antagonist series (AID 743416); type: functional, cell-based
[4] = cytotoxicity in HEK-293T cells, dose response, cytotoxicity control for TCR NF-kB inhibitor project, luminescence, T-cell screen hits (AID 489026); type: functional, cell-based;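 note: cells exposed to compound about 14 hours before the viability readout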
[5] = inhibitors of clade B AD8 Env fusion, dose response, cell-based, cherry-pick (AID 652062); type: functional;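 note: luciferase signal from cell-cell fusion driven by HIV-1 clade B AD8 Env; potency is for inhibitors of fusion seen as a drop in luminescence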
[6] = Luminescence Cell-Based Dose Confirmation HTS to Identify Inhibitors of Platelet Dense Granule Release. [Related pubchem assays: 1663 (Primary HTS), 1678 (Summary of Project)]; type: functional
[7] = inhibitors of HIV Env-driven cell fusion, dose response, cherry-pick (AID 652057); type: functional, cell-based
[8] = Shn3 3'UTR reporter inhibitors, dose response, cell-based, Clone20 osteoblasts, firefly luciferase, cherry-picked (AID 624132); type: functional;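 note: firefly luciferase luminescence from reporter carrying the Shn3 3'UTR in osteoblasts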
[9] = LGR2 antagonists, dose response, cell-based, HEK293, CRE-luciferase reporter, cherry pick, set 2 (AID 743343); type: functional;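 note: transfected cells were stimulated with diluted bursicon conditioned medium after compound addition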
[10] = non-specific cell cytotoxicity, dose response, cytotoxicity control for PAX8 inhibitor project, plate reader, dry powder samples (AID 743021); type: functional, cell-based
[11] = molecular target: T3, Microphthalmia-associated transcription factor (Homo sapiens, UniProt O75030); assay: TRPM1 promoter luciferase signal decrease, dose response, MITF inhibitor project, cell-based, SK-MEL-5, cherry-picked, set 3 (AID 493073); type: functional
T3 sequence (O75030 whole entry): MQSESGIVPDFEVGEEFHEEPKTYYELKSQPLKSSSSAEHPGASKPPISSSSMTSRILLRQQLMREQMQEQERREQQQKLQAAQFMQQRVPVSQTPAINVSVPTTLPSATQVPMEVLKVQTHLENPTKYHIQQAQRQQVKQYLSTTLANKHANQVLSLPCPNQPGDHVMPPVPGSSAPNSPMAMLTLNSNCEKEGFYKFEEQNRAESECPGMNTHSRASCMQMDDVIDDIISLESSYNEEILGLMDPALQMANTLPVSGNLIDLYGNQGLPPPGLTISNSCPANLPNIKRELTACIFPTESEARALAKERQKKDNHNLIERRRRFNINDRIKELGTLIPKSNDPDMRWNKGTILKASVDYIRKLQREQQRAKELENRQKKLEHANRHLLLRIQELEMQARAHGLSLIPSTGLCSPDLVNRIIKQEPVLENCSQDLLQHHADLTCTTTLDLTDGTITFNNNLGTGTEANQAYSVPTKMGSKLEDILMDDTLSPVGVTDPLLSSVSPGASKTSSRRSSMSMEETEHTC

[12] = molecular target: T4, Heat shock factor protein 1 (Mus musculus, UniProt P38532); assay: inhibition of MG132-induced HSE-luciferase signal, confirmation, cell-based, NIH3T3, luminescence, dose retest (AID 2382); type: functional;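 note: NIH3T3 fibroblasts with HSF1-driven luciferase reporter stressed by proteasome inhibitor MG132; luminescence from HSF1-driven luciferase expression after 8 hours of MG132 stress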
T4 sequence (P38532 whole entry): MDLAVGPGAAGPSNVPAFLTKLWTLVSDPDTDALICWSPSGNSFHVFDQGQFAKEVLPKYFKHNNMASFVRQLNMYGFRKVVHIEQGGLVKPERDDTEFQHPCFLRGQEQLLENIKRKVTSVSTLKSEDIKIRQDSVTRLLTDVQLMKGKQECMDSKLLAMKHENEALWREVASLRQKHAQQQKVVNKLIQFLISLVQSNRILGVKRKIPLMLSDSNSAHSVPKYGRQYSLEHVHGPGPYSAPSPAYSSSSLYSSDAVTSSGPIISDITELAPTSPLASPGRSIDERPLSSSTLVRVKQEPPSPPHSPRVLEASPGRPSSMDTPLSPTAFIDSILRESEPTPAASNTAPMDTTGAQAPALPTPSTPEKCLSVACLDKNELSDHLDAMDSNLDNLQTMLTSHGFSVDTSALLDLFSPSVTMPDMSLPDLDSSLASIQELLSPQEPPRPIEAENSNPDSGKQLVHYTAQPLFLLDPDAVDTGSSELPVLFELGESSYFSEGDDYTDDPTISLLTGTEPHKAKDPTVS

[13] = HEK293 cell cytotoxicity, dose response, cytotoxicity control, plate reader, cherry-picked samples (AID 743446); type: functional, cell-based
[14] = molecular target: Luciferin 4-monooxygenase (Photinus pyralis, UniProt P08659); assay: firefly luciferase enzyme inhibitors, dose response, biochemical, luminescence (AID 1891)
Chain of Luciferin 4-monooxygenase (P08659 whole entry, the tested form may be a part): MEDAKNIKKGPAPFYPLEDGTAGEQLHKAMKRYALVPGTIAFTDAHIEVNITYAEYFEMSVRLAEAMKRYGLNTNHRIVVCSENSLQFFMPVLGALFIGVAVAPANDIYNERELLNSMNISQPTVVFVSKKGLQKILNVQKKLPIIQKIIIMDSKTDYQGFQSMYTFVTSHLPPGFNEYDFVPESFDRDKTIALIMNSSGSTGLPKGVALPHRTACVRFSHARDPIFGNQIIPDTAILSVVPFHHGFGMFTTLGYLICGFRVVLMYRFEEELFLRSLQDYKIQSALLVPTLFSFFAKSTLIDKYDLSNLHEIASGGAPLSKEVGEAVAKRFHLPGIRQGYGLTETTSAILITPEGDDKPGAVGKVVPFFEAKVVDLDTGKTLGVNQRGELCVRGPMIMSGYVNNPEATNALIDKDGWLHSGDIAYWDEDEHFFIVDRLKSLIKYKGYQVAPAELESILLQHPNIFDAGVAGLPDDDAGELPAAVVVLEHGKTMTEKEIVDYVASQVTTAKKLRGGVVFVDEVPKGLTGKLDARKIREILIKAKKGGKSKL

[15] = off-target signal loss in HeLa-CEM21 co-culture – HeLa F-luc CTL cells, cherry-picked, counter-screen for HIV-1 Env fusion inhibitor project, dose response (AID 652040); type: functional, cell-based;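 note: potency for signal decrease marking cytotoxic or nonspecific inhibition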
[16] = HepG2 cell cytotoxicity, dose response, cytotoxicity control for Shn3 inhibitor project, CellTiter-Glo, cherry-picked (AID 624134); type: functional, cell-based
[17] = ZM109 Env clade C HIV-1 fusion inhibitors, dose response, HeLa effector, CEM target cells, luciferase, cherry-pick (AID 652058); type: functional, cell-based
[18] = A549 cell cytotoxicity, dose response, cytotoxicity control, plate reader, cherry-pick, antagonist series (AID 743412); type: functional, cell-based
[19] = MC4R antagonists, dose response, counter-screen for LGR2 antagonist project, cell-based, plate reader, cherry pick (AID 743444); type: functional;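 note: transfected HEK 293 cells stimulated with alpha-MSH peptide; potency of inhibitors of the alpha-MSH evoked signal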
[20] = CEM21 lymphoblast cell cytotoxicity, dose response, cytotoxicity control for viral fusion inhibitor project, CellTiter-Glo luminescence, cherry-picked (AID 652042); type: functional, cell-based;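 note: potency for signal decrease meaning cytotoxicity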
A-375 = assay: MITF: Counter assay: A375 proliferation Measured in Cell-Based System Using Plate Reader - 2084-03_Inhibitor_Dose_DryPowder_Activity. [Related pubchem assays (depositor defined):AID488944]; type: functional; settings: Homo sapiens
Paired box protein Pax-8 = Paired box protein Pax-8 (Homo sapiens, UniProt Q06710); assay: inhibitors of PAX8-driven TPO luciferase reporter, dose response, RMG-I cells, cherry-pick (AID 687027); type: functional, cell-based;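 note: luciferase reporter driven by Pax8 target thyroperoxidase promoter measured by SteadyGlo luminescence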
Chain of Paired box protein Pax-8 (Q06710 whole entry): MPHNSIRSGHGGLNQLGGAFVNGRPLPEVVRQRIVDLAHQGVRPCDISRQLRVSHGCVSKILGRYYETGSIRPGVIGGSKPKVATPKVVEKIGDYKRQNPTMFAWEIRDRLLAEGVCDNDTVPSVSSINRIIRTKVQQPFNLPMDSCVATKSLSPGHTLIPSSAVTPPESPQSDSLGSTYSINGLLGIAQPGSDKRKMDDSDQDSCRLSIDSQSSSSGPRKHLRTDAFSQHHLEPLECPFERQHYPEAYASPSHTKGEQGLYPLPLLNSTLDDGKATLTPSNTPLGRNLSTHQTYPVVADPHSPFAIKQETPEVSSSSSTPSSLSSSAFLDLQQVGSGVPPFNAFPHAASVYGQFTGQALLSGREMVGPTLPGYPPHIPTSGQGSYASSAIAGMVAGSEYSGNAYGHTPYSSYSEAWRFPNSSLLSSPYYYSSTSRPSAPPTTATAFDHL

[21] = molecular target: Nuclear receptor subfamily 0 group B member 1 (Homo sapiens, UniProt P51843); assay: Luminescence-based cell-based high throughput dose response assay for inhibitors of the orphan nuclear receptor subfamily 0, group B, member 1 (DAX1; NR0B1). [Related pubchem assays (depositor defined):AID504766, AID504790]; type: functional
Chain of Nuclear receptor subfamily 0 group B member 1 (P51843 whole entry): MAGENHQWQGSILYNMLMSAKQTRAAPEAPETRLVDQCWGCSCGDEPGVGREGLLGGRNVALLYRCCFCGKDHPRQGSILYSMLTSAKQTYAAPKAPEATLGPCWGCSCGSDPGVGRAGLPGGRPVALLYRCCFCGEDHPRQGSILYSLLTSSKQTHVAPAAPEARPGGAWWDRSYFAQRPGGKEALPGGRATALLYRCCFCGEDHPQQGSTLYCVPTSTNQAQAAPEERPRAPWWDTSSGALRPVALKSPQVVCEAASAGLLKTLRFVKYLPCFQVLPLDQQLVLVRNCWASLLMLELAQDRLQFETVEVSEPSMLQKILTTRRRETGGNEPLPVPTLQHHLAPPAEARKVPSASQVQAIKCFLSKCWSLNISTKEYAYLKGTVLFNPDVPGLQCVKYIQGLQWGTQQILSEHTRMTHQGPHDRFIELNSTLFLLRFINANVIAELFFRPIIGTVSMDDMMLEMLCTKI

HEK293 = assay: cells; type: functional, cell-based; settings: Homo sapiens
[22] = HeLa cell cytotoxicity, dose response, cytotoxicity control for MgcRacGAP inhibitor project (AID 624300); type: functional
[23] = molecular target: Induced myeloid leukemia cell differentiation protein Mcl-1 (Homo sapiens, UniProt Q07820); type: functional
Chain of Induced myeloid leukemia cell differentiation protein Mcl-1 (Q07820 whole entry): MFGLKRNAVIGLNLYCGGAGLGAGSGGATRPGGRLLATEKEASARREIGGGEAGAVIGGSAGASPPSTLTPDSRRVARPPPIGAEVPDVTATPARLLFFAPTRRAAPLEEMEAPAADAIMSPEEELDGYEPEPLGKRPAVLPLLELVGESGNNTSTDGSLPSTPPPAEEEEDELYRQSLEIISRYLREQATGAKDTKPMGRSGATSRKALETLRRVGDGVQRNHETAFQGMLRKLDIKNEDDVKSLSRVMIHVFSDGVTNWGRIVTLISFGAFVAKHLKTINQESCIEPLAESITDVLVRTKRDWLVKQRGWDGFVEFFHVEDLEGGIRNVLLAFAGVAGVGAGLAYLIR

Beta-arrestin-1 = Beta-arrestin-1 (Homo sapiens, UniProt P49407); assay: inhibitors of arrestin peptide binding to AP2, dose response, biochemical, cherry pick 1, beta2-adaptin appendage, flow cytometry (AID 588783); type: functional
Chain of Beta-arrestin-1 (P49407 whole entry): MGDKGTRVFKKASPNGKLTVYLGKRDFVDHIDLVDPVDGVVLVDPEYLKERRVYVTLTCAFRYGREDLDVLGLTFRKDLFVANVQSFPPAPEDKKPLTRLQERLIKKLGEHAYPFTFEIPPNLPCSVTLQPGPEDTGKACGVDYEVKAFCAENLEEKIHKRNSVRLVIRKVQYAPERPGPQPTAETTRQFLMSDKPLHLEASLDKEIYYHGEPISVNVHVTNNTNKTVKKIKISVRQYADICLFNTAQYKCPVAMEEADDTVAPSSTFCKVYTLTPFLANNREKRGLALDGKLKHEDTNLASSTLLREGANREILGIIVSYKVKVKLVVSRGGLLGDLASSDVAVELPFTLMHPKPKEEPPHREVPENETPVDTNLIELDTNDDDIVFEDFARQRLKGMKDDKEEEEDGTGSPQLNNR

[24] = molecular target: E3 ubiquitin-protein ligase Mdm2 (Homo sapiens, UniProt Q00987); assay: enhancers of MDM2-luciferase reporter signal, concentration-effect titration, project on inhibitors of MDM2 ubiquitin ligase, cellular assay, luminescent readout, 384-well plate format (AID 1394); type: functional;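 note: MDM2 E3 inhibitors raise luminescence so EC50 is for signal enhancement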
Chain of E3 ubiquitin-protein ligase Mdm2 (Q00987 whole entry): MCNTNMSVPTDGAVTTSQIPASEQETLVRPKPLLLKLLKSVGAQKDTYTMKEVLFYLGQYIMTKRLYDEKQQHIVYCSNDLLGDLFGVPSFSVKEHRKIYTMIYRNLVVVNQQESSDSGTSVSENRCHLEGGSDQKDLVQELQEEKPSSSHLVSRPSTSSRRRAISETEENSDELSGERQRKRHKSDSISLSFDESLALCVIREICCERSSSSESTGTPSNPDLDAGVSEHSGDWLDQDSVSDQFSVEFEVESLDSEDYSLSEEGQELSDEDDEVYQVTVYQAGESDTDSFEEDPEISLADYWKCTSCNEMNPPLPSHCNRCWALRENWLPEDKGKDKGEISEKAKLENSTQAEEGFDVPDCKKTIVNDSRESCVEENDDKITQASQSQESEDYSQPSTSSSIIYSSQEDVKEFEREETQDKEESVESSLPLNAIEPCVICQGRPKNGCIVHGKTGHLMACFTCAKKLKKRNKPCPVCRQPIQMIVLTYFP

Vero = Vero cell cytotoxicity, cytotoxicity control for flavivirus capping enzyme inhibitors (AID 588742); type: functional; settings: Chlorocebus sabaeus
Genome polyprotein = Genome polyprotein (dengue virus type 2, UniProt P29990); assay: Dengue-2 NS5 methyltransferase inhibitors, primary screen, biochemical, confirmation dose response (AID 588689); type: functional
Chain of Genome polyprotein (P29990 2492-3391 limits assumed): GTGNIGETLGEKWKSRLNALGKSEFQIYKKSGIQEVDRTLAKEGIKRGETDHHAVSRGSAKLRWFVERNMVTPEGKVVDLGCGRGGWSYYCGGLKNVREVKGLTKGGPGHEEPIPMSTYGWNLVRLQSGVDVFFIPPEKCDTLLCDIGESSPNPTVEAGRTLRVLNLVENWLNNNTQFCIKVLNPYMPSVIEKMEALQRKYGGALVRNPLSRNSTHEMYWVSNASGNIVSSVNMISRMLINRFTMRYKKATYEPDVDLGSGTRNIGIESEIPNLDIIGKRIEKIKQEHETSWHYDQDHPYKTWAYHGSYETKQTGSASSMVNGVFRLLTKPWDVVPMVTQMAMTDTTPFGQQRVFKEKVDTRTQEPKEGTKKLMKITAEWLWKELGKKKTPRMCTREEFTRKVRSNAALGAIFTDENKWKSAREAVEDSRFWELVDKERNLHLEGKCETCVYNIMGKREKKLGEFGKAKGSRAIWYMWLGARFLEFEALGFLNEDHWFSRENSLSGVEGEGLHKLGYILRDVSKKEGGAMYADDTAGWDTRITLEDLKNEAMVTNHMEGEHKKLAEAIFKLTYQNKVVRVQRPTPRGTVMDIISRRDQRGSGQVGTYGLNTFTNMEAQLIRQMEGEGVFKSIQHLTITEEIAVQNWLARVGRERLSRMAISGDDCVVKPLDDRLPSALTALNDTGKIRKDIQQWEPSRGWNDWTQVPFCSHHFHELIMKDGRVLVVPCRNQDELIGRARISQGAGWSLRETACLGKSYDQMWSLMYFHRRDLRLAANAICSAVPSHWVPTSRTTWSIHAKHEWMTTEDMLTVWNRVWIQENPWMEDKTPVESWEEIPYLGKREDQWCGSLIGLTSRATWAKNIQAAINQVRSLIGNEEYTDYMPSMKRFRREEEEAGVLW

[25] = THP-1 cell cytotoxicity, dose response, cytotoxicity control for Vif-APOBEC3G degradation inhibitor project, THP-1 cells (AID 1117359); type: functional; settings: Human immunodeficiency virus 1, THP-1

Chain of Mu-type opioid receptor (P35372 whole entry): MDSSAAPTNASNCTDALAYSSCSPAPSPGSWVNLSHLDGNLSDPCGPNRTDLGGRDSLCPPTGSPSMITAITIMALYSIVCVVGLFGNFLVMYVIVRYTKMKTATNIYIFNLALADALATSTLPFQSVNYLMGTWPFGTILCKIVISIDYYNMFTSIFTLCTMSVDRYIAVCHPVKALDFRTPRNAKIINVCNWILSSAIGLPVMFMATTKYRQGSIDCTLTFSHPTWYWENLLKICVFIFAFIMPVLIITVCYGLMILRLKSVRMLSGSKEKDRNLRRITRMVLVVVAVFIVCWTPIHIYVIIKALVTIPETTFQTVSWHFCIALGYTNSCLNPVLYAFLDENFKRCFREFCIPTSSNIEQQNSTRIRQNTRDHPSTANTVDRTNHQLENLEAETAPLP

## Cc1c(CCOC(=O)c2ccccc2)sc[n+]1CC(=O)c1ccc(Br)cc1
Mu-type opioid receptor
  EC50: > 92.5 µM (inactive)
[1]
  EC50: > 92.5 µM (inactive)
[2]
  EC50: > 92.5 µM (inactive)

## O=c1c2ccccc2nc(/C=C/c2ccc3c(c2)OCO3)n1Cc1ccccc1
Hexokinase HKDC1
  IC50: > 80 µM (inactive)
Hexokinase-1
  IC50: > 80 µM (inactive)

## C=CCn1c(C)cc(C2=NN=C(NCC)SC2)c1C
[3]
  AC50: 3.64 µM (active)
[4]
  IC50: > 80 µM (inactive)
[5]
  AC50: 0.359 µM (active)
[6]
  EC50: 2.02 µM (active)
[7]
  AC50: 0.295 µM (active)
[8]
  AC50: < 0.26 µM (active)
[9]
  AC50: < 0.068 µM (active)
[10]
  AC50: 8.07 µM (active)
[11]
  AC50: 0.056 µM (active)
[12]
  EC50: < 0.16 µM (active)
[13]
  AC50: 14.5 µM (active)
[14]
  EC50: 5.03 µM (active)
[15]
  AC50: 0.554 µM (active)
[16]
  AC50: 26 µM (active)
[17]
  AC50: 2.94 µM (active)
[18]
  AC50: 11.7 µM (active)
[19]
  AC50: < 0.068 µM (active)
[20]
  AC50: 34.7 µM (active)
A-375
  AC50: 25.7 µM (active)
Paired box protein Pax-8
  AC50: 0.267 µM (active)

## COc1ccccc1NC(=O)Nc1ccc2c(c1)OCCO2
[21]
  IC50: > 67.5 µM (inactive)
HEK293
  IC50: > 67.5 µM (inactive)

## Cc1cccc2c1c1ccc3c(c1n2C)C(=O)C=CC3=O
[22]
  CC50: 100 µM (active)
[23]
  IC50: 3.22 µM (active)
Beta-arrestin-1
  IC50: 7.34 µM (active)
[24]
  EC50: 1.03 µM (active)
Vero
  CC50: 34.7 µM (active)
Genome polyprotein
  IC50: 33.5 µM (active)
[25]
  CC50: 14.1 µM (active)
